Earlier results, collected in patent US20130101864A1, “Multifunctional Long-Acting Rust-Proof Film and Manufacturing Method Thereof” (Zhejiang Great Southeast Packaging Co., Ltd., priority 2010, published 2013).

Tests used:
[1] = no harmful physiological toxicity on human body

c1ccc2[nH]nnc2c1 [Benzotriazole]
toxicity [1]: non-toxic
solubility in organic solvents (alcohol, benzene, toluene, chloroform and dimethylformamide): soluble
solubility in water (water): slightly soluble
